Residues, ends and D or L forms follow the SMILES beside them. *: point of attachment. Cbz = O=C(OCc1ccccc1)*; CH2F = FC*

One data set has as its system DU145. In words: Stimulation of macropinocytosis (dextran uptake). Conditions: 10 μM for 24, 48, or 72 h, flow cytometry. It counts as cell-based. Here is the method: (Panel A) DU145 cells were treated with 10 μM tAS1411 or 10 μM tCRO or no oligonucleotide in complete DMEM medium at 37° C. for the time indicated. After treatment, cell medium was changed for fresh complete medium containing 0.2 mg/ml dextran-10K labeled with Alexa Fluor 488, and cells were incubated for 30 min at 37° C. After incubation, cells were harvested and analyzed by flow cytometry to determine dextran uptake. (Panel B) The same experiment was performed using Hs27 cells. (Panel C) DU145 cells were treated with 10 μM tAS1411 or 10 μM tCRO or no oligonucleotide in complete DMEM medium at 37° C. for 48 h. After treatment, cell medium was changed for fresh complete medium containing 0.2 mg/ml dextran-10K tagged with Alexa Fluor 488, and cells were incubated for 30 min at 37° C. Then, cells were washed with cold PBS, added PBS containing 5 μg/ml PI and incubated on ice for 5 min. After washing with cold PBS, cells were fixed and the distribution of macropinocytic marker was visualized by confocal microscopy. The nucleus was stained with DAPI (blue). Scale bars, 10 μm. All experiments have been repeated at least three times. Data are mean of three independent samples; bars, SE; *(p<0.05).
FIG. 6 are graphs showing that nucleolin regulates AS1411-induced stimulation of macropinocytosis. DU145 cells were untreated (no transfection) or transfected, without siRNA (mock), or with 30 nM of one of three different nucleolin siRNAs (NCL1, NCL2, NCL3) or a control siRNA (scramble). 48 h after transfection, cells were incubated with 10 μM tAS1411, 10 μM tCRO, or no oligonucleotide in complete DMEM medium at 37° C. for 24 h. (Panel A) After treatment, cell medium was changed for fresh complete medium containing 0.2 mg/ml dextran-10K labeled with Alexa Fluor 488 (green) and incubated for 30 min at 37° C. (Panel B) After treatment, some cells were washed, fresh complete medium containing 10 μM FL-AS1411 added and incubated for 2 h at 37° C. After incubation, cells were harvested and analyzed by flow cytometry. Mean fluorescence was normalized to “not transfected” control (Panel A) or to no pre-treatment control (Panel B). All experiments have been repeated at least three times. Data are the mean of three independent samples; bars, SE; *(p<0.05).
FIG. 11 is a graph showing a comparison between AS1411 and tAS1411 in the ability to stimulate macropinocytosis. DU145 cells were plated 18 hr before treatment with different concentrations (0, 5, 10, or 15 μM) of AS1411, tAS1411 or tCRO in complete DMEM medium at 37° C. for 48 h. After treatment, cell medium was changed for fresh complete medium containing 0.2 mg/ml dextran-10K labeled with Alexa Fluor 488, and cells were incubated for 30 min at 37° C. After incubation, cells were incubated on ice with […] PI in PBS, harvested, fixed and immediately analyzed by flow cytometry.
To analyze uptake of the oligodeoxynucleotides or dextran-10K (macropinocytic marker) by flow cytometry, 2×10^5 cells in fresh supplemented culture medium (2.5 ml) were plated into 6-well plates for 18 h. After complete adhesion, the cells were incubated with 5′-FAM tagged oligodeoxynucleotides or Alexa Fluor 488 tagged dextran-10K and incubated as indicated in the Description of the Drawings. Cells were washed once with ice-cold PBS, incubated with 1 μg/ml 7-amino-actinomycin D (7-AAD) for 5 min on ice or 1 μg/ml propidium iodide (PI), and washed twice with ice-cold PBS. Cells were then treated with 0.01% trypsin/0.5 mM EDTA (300 μl) for 3 min prior addition 3 ml supplemented culture medium. The cells were then centrifuged and resuspended in 0.5 ml of 1% paraformaldehyde for analysis by flow cytometry using a FACScalibur cytometer (BD Biosciences, Mountain View, Calif.).
AS1411 causes a change in cancer cell morphology that is characterized by vacuolization, irregular nuclei, and swollen cells (Xu et al., 2001, J. Biol. Chem., 276:43221-30). […]
In general terms: In flow cytometry, cells or beads pass a laser one at a time.

The subject of the next data set is U937 leukemia cells. In words: Cell death mechanism (DNA laddering, immunoblotting, electron microscopy). It counts as cell-based. As to the method:
(A) Trypan blue staining of U937 leukemia cells showing percentage of dead cells (trypan blue positive) over time. (B) U937 cells were untreated (Un) or treated with 1 μM AS1411 (1411) or control oligonucleotide (Ctrl) for 72 h. DNA was extracted, electrophoresed on an agarose gel and stained with ethidium bromide to probe DNA laddering. As a positive control, […] were treated with UV irradiation to induce apoptosis as previously described. […] (D) U937 cells treated as described for panel B, followed by protein extraction and immunoblotting (IB) to detect PARP cleavage and Caspase-3 activation. (E) DU145 prostate cancer cells were incubated with 10 μM of AS1411 for 24 h, or irradiated with UV (300 J/m^2 with UV Stratalinker 2400, Strategene), then cultured in fresh medium for 6 h. Assessment of cell death was carried out by flow cytometry to detect Annexin V-FITC binding and PI staining.
For orientation: A western blot detects proteins with antibodies after separation by electrophoresis.

Data set [1] concerns DU145 cells. In words: Uptake of fluorophore-labeled oligonucleotides by flow cytometry. Type of data set: cell-based. The conditions noted are these: 5 μM cytochalasin D for 30 min, then 10 μM FL-AS1411 2 h. Here is the method:
(§1) FIG. 1 are graphs showing that AS1411 cell internalization is an active process. Cells were plated 18 h before uptake analysis. After incubation as described, cells were washed with ice-cold PBS, incubated with 1 μg/ml 7-AAD, harvested and resuspended in 1% paraformaldehyde containing 2 μg/ml actinomycin D, then analyzed by flow cytometry. (Panel A) DU145 cells were incubated at 37° C. with fresh complete DMEM medium containing 10 μM FL-AS1411 (black line) or 10 μM FL-CRO (gray line) for the time indicated. (Panel B) DU145 cells were incubated for 2 h at 37° C. in complete or serum-free DMEM medium containing 10 μM FL-AS1411, or 10 μM FL-CRO, or no oligonucleotide. (Panel C) Various cell lines were incubated with 10 μM FL-AS1411 (black outline histogram), 10 μM FL-CRO (gray outline histogram) or without DNA (solid gray histogram) at 37° C. or 4° C. for 2 h. All experiments were repeated at least three times. Data are mean of three independent samples; bars, SE; *(p<0.05).
(§2) FIG. 2 are graphs showing that AS1411 is internalized by different endocytic mechanisms in DU145 cancer cells and in non-malignant Hs27 cells. DU145 or Hs27 cells were plated 18 h before uptake analysis. Cells were pre-treated as described with inhibitor (gray histogram) or the corresponding vehicle control (black histogram) before addition of 10 μM FL-AS1411 and incubation at 37° C. for 2 h. After incubation, cells were harvested and analyzed by flow cytometry. Pre-treatment conditions were at 37° C. with: (Panel A) 5 μM Cytochalasin D for 30 min; (Panel B) 80 μM Dynasore for 30 min; or (Panel C) 3 mM amiloride for 1 h. All experiments were repeated at least three times and representative data are shown. Solid gray histograms represent background autofluorescence of unstained cells.
DU145 cells were transfected for 48 h without siRNA (mock, M), or with 30 nM of one of three different nucleolin siRNAs (NCL1, NCL2, NCL3) or a control siRNA (scramble, S), or contransfected with 10 nM of each nucleolin siRNAs (mix). (Panel A) Cells were lysed and total cell lyses were analyzed by Western blotting using the antibodies shown. (Panel B) Cell-surface proteins from intact transfected DU145 cells were labeled covalently with membrane-impermeable biotinylating agent. Cells were lysed, then biotinylated plasma membrane proteins were captured with streptavidin-agarose beads and analyzed by blotting with anti-nucleolin antibody (upper panel). After stripping, the membrane was reprobed with antibodies for a plasma membrane marker (anti-pan Cadherin) and a nuclear marker (anti-histone 3) to confirm the fractionation. Total lysate (Lys) was used as control. (Panel C) The medium of transfected cells was replaced by fresh complete DMEM medium containing no oligonucleotide (gray dashed histogram) or 10 μM FL-CRO (gray solid line histogram) or 10 μM FL-AS1411 (black solid line histogram) and incubated at 37° C. for 2 h. After incubation, cells were harvested and analyzed by flow cytometry.
DU145 cells were plated 18 hr before uptake analysis. Cell medium was changed with fresh complete DMEM medium containing different concentrations of FL-AS1411 (black line) or FL-CRO (gray line), and incubated at 37° C. for 2 hrs. After incubation, cells were harvested and analyzed by flow cytometry.
FIG. 9 are graphs showing the effects of inhibitors on various endocytic pathways. DU145 or Hs27 cells were plated 18 hr before uptake analysis. (Panel A) DU145 cells were pre-treated with dynamin inhibitor, […] Dynasore (black histogram) or DMSO (gray histogram) for 30 min at 37° C. After pre-treatment, cells were treated with […] transferrin conjugated with Alexa Fluor 488 for 30 min at 37° C. (Panel B) DU145 and Hs27 cells were pre-treated with 3 mM amiloride (black histogram) or vehicle (serum-free medium, gray histogram) for 1 h at 37° C. After pre-treatment, FL-CRO was added at a concentration of 10 μM and incubated at 37° C. for 2 h. After incubation, cells were harvested and analyzed by FACS. […]

The test system of a further data set is Hs27 cells. Described as above. Type of data set: cell-based, human. Conditions: 5 μM cytochalasin D for 30 min, then 10 μM FL-AS1411 2 h. Here is the method: as §1, §2
FIG. 9 are graphs showing the effects of inhibitors on various endocytic pathways. DU145 or Hs27 cells were plated 18 hr before uptake analysis. (Panel A) DU145 cells were pre-treated with dynamin inhibitor, […] Dynasore (black histogram) or DMSO (gray histogram) for 30 min at 37° C. After pre-treatment, cells were treated with […] transferrin conjugated with Alexa Fluor 488 for 30 min at 37° C. (Panel B) DU145 and Hs27 cells were pre-treated with 3 mM amiloride (black histogram) or vehicle (serum-free medium, gray histogram) for 1 h at 37° C. After pre-treatment, FL-CRO was added at a concentration of 10 μM and incubated at 37° C. for 2 h. After incubation, cells were harvested and analyzed by FACS. Gray solid histogram represents unstained cells.
To analyze uptake of the oligodeoxynucleotides or dextran-10K (macropinocytic marker) by flow cytometry, 2×10^5 cells in fresh supplemented culture medium (2.5 ml) were plated into 6-well plates for 18 h. […]

In data set [2] the test system is DU145 cells. It counts as cell-based. Here is the method:
DU145 cells were incubated for 4 days in the presence of 10 μM AS1411 with 3-MA at the concentration indicated, and cell number was assessed by MTT assay.
It also appears unlikely that AS1411-induced cell death is due to autophagy. […] Further evidence that supports the idea that AS1411 can induce methuosis comes from the similarity between the appearance of cells treated with AS1411 and published images of glioblastoma cells undergoing Ras-induced methuosis.

Consider “5′-d(TTTCCTCCTCCTCCTTCTCCTCCTCCTCC) (DNA TTTCCTCCTCCTCCTTCTCCTCCTCCTCC; unmodified DNA) [tCRO, reference compound]”, for which the “uptake of the macropinocytic marker, dextran, after treatment” value in the data set with DU145 was “No changes in dextran uptake”.

`CC[C@H](C)[C@H](NC(=O)OCc1ccccc1)C(=O)N[C@@H](CCC(=O)OC)C(=O)N[C@H](C(=O)N[C@@H](CC(=O)OC)C(=O)CF)[C@@H](C)O` [zIETD-fmk] (Cbz-IE(OMe)TD(OMe)-CH2F): the “effect of pre-incubation on AS1411-induced cell death” value (“effect of pre-incubation” for short) in the data set on U937 leukemia cells is on record as “did not inhibit AS1411-induced cell death”.

As for `C=C1[C@@H](C)[C@H]2[C@H](Cc3ccccc3)NC(=O)[C@]23[C@H](OC(C)=O)/C=C/[C@@](C)(O)C(=O)[C@@H](C)C/C=C/[C@H]3[C@@H]1O` [Cytocholasin D, Cytochalasin D, reference compound], the “effect of pre-treatment on FL-AS1411 uptake” value in the data set with DU145 cells [1] and in the data set on Hs27 cells was “decrease in FL-AS1411 uptake” each time.

For `NC(=O)c1cccc(N)c1` [3-aminobenzamide], the “effect of pre-incubation” value with U937 leukemia cells was “did not inhibit AS1411-induced cell death”.

As for `COC(=O)CC[C@H](NC(=O)[C@H](CC(C)C)NC(=O)OCc1ccccc1)C(=O)N[C@@H](Cc1cnc[nH]1)C(=O)N[C@@H](CC(=O)OC)C(=O)CF` [zLEHD-fmk] (Cbz-LE(OMe)HD(OMe)-CH2F), in the data set with U937 leukemia cells, the “effect of pre-incubation” value is “did not inhibit AS1411-induced cell death”.

Take `Cn1cnc(N)c2ncnc1-2` [3-methyladenine]: the “toxicity of the inhibitor alone” value with DU145 cells [2] is given as “some toxicity by itself”. In addition, the “effect on AS1411 activity” value in the data set with DU145 cells [2] (4 days, 10 μM AS1411) was “did not inhibit AS1411 activity”.

With `COC(=O)C[C@H](NC(=O)[C@H](C)NC(=O)[C@@H](NC(=O)OCc1ccccc1)C(C)C)C(=O)CF` [zVAD-fmk] (Cbz-Val-Ala-Asp(OMe)-CH2F), in the data set on U937 leukemia cells, the “effect of pre-incubation” value is “did not inhibit AS1411-induced cell death”.

On to `COC(=O)CC[C@H](NC(=O)[C@H](CC(=O)OC)NC(=O)OCc1ccccc1)C(=O)N[C@H](C(=O)N[C@@H](CC(=O)OC)C(=O)CF)C(C)C` [zDEVD-fmk], for which, in the data set with U937 leukemia cells, the “effect of pre-incubation” value is recorded as “did not inhibit AS1411-induced cell death”.

For the origin of these results see patent US20130065227A1, “METHODS OF INCREASING MACROPINOCYTOSIS IN CANCER CELLS” (priority 2010, published 2013).
